# In patent US8318184B2, “MGLU2 agonists” (Eli Lilly and Company, priority 2009, dated 2012):
# What was measured:
# human mGlu2 receptor = biological target: T1, human mGlu2 receptor (Homo sapiens, UniProt Q14416); test: Human mGlu2 Agonist FLIPR Assay; assay type: cell-based; conditions: hmGlu2 FLIPR assay, AV-12 cells, relative EC50
# T1 construct: expressed in transfected cells; co-transfected with rat EAAT1 and Galpha15
# Text: AV-12 cell lines, derived from Syrian Hamster fibroblasts and stably expressing the human mGlu2 receptor and co-transfected with the rat glutamate transporter EAAT 1 (Excitatory Amino Acid Transporter 1) and the Gα15 subunit, are used for these studies. The expression of Gα15 allows Gi-coupled receptors to signal through the phospholipase C pathway, resulting in the ability to measure receptor activation by a fluorometric calcium response assay. […]
# Intracellular calcium levels are monitored before and after the addition of compounds using a Fluorometric Imaging Plate Reader (FLIPR, Molecular Devices). […] Results are analyzed using Prism v4.03 (GraphPad Software). […] After taking an initial 5-sec fluorescent read on the FLIPR instrument, a compound of the present invention is added to the cell plate (50 μL per well). […] The compound effect is measured as maximal minus minimal peak heights in relative fluorescent units (RFUs) corrected for basal fluorescence measured in the absence of glutamate. […] Agonist effects are quantified as percent stimulation induced by compound alone relative to the maximal glutamate response. All data are calculated as relative EC50 values using a four-parameter logistic curve fitting program (ActivityBase v5.3.1.22).
# ICR(CD-1) mice = test: Reversal of Phencyclidine (PCP)-Induced Hyperlocomotor Activity in Mice; assay type: in vivo, mouse; conditions: i.p.
# Text: This assay for Reversal of Phencyclidine (PCP)-Induced Hyperlocomotor Activity in Mice is run substantially as the Reversal of Phencyclidine (PCP)-Induced Hyperlocomotor Activity in Rats assay provided above, using mice instead of rats and with the changes noted below.
# Motor activity is monitored by placing individual male, ICR(CD-1), (Harlan, Indianapolis, Ind.) mice in transparent, plastic shoe-box cages of the dimensions 45×25×20 cm, with 0.5 cm depth of wood chips as bedding, and plastic lid on top of the cage. Motor monitors (Kinder Scientific) consist of a rectangular rack of 12 photobeams arranged in an 8×4 formation, (or a high density grouping of 22 in a 15×7 pattern) at a height of 2.5 cm. The shoe box cage is placed inside of these racks, with the racks on a 3 foot high tabletop in an isolated room. A compound of the present invention is dosed (intraperitoneal route, non-prodrug) usually within a range of 0.3-30 mg/kg; though higher doses may be used, 30 minutes prior to a 7.5 mg/kg challenge dose of phencyclidine (PCP). On the test day, mice are placed in the test cage and allowed to acclimate for 45 minutes prior to PCP challenge; mice are monitored for an additional 60 minutes following PCP administration.
# Power analyses have determined that 7-8 mice per group are needed to have appropriate statistical power for detecting treatment differences (power=0.8).
# [1] = both, human, pH 7.4
# Description: Liver S9 fractions are obtained from Xenotech LLC (Lenexa, Mo.). The lot is from a pool of two donors. The liver S9 fraction is prepared and diluted using a homogenization buffer consisting of 50 mM Tris, pH 7.4 at 4° C. and 150 mM potassium chloride without EDTA. Prodrug compounds are incubated in the liver homogenate for 2 hours at 37° C., after which the concentration of compound is determined by LC/MS/MS. Hydrolysis of Clopidogrel to Clopidogrel Carboxylic Acid is utilized as an assay positive control.
# A mobile phase gradient is utilized starting mobile phase ratio A/B of 99.9/0.1 and finishing at 1/99.
# T1 sequence (Q14416 19-872): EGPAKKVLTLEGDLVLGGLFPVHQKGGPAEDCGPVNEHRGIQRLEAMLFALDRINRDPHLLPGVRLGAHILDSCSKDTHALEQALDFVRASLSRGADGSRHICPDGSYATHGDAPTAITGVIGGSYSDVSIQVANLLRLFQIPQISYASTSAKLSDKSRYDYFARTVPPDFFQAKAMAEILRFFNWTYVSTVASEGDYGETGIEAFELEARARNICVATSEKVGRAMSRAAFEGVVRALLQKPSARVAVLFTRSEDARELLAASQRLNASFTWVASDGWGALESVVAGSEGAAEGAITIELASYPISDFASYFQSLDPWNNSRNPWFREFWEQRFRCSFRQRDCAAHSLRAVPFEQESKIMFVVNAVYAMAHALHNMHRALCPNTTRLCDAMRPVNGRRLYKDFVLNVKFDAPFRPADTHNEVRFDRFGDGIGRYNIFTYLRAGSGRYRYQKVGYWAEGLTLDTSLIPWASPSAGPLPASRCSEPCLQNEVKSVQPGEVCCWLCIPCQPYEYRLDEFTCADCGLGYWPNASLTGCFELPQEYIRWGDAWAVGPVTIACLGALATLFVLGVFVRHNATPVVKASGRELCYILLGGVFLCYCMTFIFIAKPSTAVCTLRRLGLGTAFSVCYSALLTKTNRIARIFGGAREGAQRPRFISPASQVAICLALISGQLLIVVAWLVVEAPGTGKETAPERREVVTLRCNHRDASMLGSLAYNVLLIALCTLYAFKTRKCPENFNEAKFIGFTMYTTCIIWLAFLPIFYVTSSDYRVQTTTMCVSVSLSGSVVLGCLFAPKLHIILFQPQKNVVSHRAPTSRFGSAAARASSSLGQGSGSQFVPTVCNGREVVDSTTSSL
SMILES,EC50 (human mGlu2 receptor) [µM],"inhibition of PCP evoked ambulations (ICR(CD-1) mice; multiple dose experiment, 10 mg/kg dose) [%]","inhibition of PCP evoked ambulations (ICR(CD-1) mice; multiple dose experiment, 100 mg/kg dose) [%]",inhibition of PCP evoked ambulations (ICR(CD-1) mice; single dose experiment of 10 mg/kg) [%],Hydrolysis of Clopidogrel to Clopidogrel Carboxylic Acid [1] [%]
"N[C@]1(C(=O)O)C[C@H](Sc2ccccc2)[C@@H]2[C@@H](C(=O)O)[C@@H]21 (racemic) [1SR,2RS,4SR,5SR,6SR-2-amino-4-(phenylthio)-bicyclo[3.1.0]hexane-2,6-dicarboxylic acid]",> 25,5±10,19±8,18±11,–
COC(=O)[C@H](c1ccccc1Cl)N1CCc2sccc2C1 [Clopidogrel],–,–,–,–,73.0
